This data set can be described thus: passive permeability, PAMPA, ADME assay (AID 1508612). As to conditions: pH 7.4, 30.0 min, 50.0 µM. On the technique in general: In PAMPA a lipid-coated filter parts donor from acceptor wells.

As usually defined, the Papp is the rate of passage across a membrane or cell layer, normalised by area and donor concentration. Lower therefore signals slow passage. As for `COc1cc(NS(=O)(=O)c2ccc(C)cc2)c(C(=O)Nc2nc(-c3ccccc3)cs2)cc1OC`, the Papp is 325 ×10⁻⁶ cm/s.

In turn, `CC[C@H]1CN(C)[C@H]2Cc3c([nH]c4ccccc34)C(=O)C[C@H]1[C@H]2C(=O)OC` had a Papp of 490 ×10⁻⁶ cm/s.

Compound `CCOC(=O)c1ccc2c(c1)c(C(C)=O)c(C)n2-c1ccc(OC)cc1` gave a Papp of over 1000 ×10⁻⁶ cm/s.

Turning to `O=c1cc(N2CCOCC2)oc2c1ccc1ccccc12`, the Papp is 294 ×10⁻⁶ cm/s.

As for `Clc1cccc(-c2ccc(-c3nnc(CCCc4ccc5cccnc5n4)o3)cc2)c1`, the Papp is over 1000 ×10⁻⁶ cm/s.

As for `C=C[C@@]1(C)C[C@H](OC(=O)CSC(C)(C)CNC(=O)[C@@H](N)C(C)C)[C@@]2(C)C(C)CC[C@@]3(CCC(=O)[C@@H]32)[C@H](C)[C@H]1O` (stereo partly drawn), the Papp is over 1000 ×10⁻⁶ cm/s.

`CC(=O)c1ccc(N2CCN(c3ccc(NC(=O)c4ccc(F)cc4)cc3C(=O)O)CC2)cc1` yielded a Papp of 156 ×10⁻⁶ cm/s.

In turn, `CN(C)C(=O)c1nc(-c2ccc(Cl)cc2Cl)c2cnccn12` gave a Papp of over 1000 ×10⁻⁶ cm/s.

`Oc1ccc(CNc2ccccc2Br)c2cccnc12` returned a Papp of under 1 ×10⁻⁶ cm/s.

`COC(=O)c1ccccc1NC(=O)c1ccccc1OC(F)F` displayed a Papp of over 1000 ×10⁻⁶ cm/s.

On to `CCn1cc(C(=O)O)c(=O)c2cnc(N3CCN(C(=S)Nc4ccccc4)CC3)nc21`, for which the Papp is 12.1 ×10⁻⁶ cm/s.

For the compound `COc1cccc(CN2CCCC(c3nc(-c4ccncc4)ncc3-c3ccccc3)C2)c1O` (stereo not drawn), the Papp was over 1000 ×10⁻⁶ cm/s.

Turning to `O=C(Nc1ccc(Cl)c(S(=O)(=O)N2CCOCC2)c1)c1ccc(S(=O)(=O)N2CCOCC2)cc1`, the Papp turned out to be 936 ×10⁻⁶ cm/s.

As to `CCOC(=O)CCNc1cc(N2CCc3ccccc3CC2)nc(-c2ccccn2)n1`, the apparent permeability (Papp) was over 1000 ×10⁻⁶ cm/s.

Compound `NC(=O)C1CCN(c2ncc(-c3ccc(Cl)cc3)s2)CC1` yielded a Papp of 714 ×10⁻⁶ cm/s.

As to `NC(=O)C1CCN(c2nc(-c3cccc4sc5ccccc5c34)cs2)CC1`, the Papp turned out to be 364 ×10⁻⁶ cm/s.

Regarding `CCN(CC)S(=O)(=O)c1ccc(N2CCCC2)c(NS(=O)(=O)c2ccc(C)cc2)c1`, the Papp came to 253 ×10⁻⁶ cm/s.

`CCOc1ccc(CCNC(=O)c2cc3sccc3n2Cc2ccccc2)c(F)c1OCC` had a Papp of under 1 ×10⁻⁶ cm/s.

Compound `O=S(=O)(Nc1nccs1)c1ccc(Nc2nc(-c3ccc(F)cc3)cs2)cc1` returned a Papp of 10.6 ×10⁻⁶ cm/s.

The compound `COc1ccc(-c2nc3c(c(SCC(=O)Nc4ccc(C(=O)O)cc4)n2)Cc2ccccc2O3)cc1` yielded a Papp of 1.18 ×10⁻⁶ cm/s.

As to `O=C([C@@H]1CCCN(c2ccc3[nH]c(C4(n5cc(Cl)cn5)CC4)nc3n2)C1)N1CCCC1`, the Papp was 225 ×10⁻⁶ cm/s.

Regarding `OCc1ccc(-c2cc3c(ccn3Cc3cccnc3)c(C3=CCOCC3)n2)cc1`, the Papp is 478 ×10⁻⁶ cm/s.

`COc1cccc(CNc2ccc(S(=O)(=O)Nc3nc(C)c(C)s3)cc2)c1O` displayed an apparent permeability coefficient (Papp) of 25.8 ×10⁻⁶ cm/s.

Turning to `O=C(c1ccc(C(=O)N2CCC(N3CCCC3)CC2)c(Nc2ccccc2)c1)N1CCC(N2CCCC2)CC1`, the Papp is 7.61 ×10⁻⁶ cm/s.

In turn, `Cc1cc2ccccc2n1CC(=O)NC1CCCCC1` returned a Papp of 634 ×10⁻⁶ cm/s.

`c1ccc2c(Nc3nccs3)nc(-c3ccncc3)nc2c1` returned a Papp of 150 ×10⁻⁶ cm/s.

On to `COc1ccc(NC(=O)c2[nH]c(C)c(C(C)=O)c2C)cc1[S+](=O)([O-])Nc1ccccc1C#N`, for which the Papp was found to be 71 ×10⁻⁶ cm/s.

Regarding `CC(=O)N1CCc2c(sc3c2c(=O)n(-c2ccccc2Cl)c(=O)n3Cc2cccc(C)c2)C1`, the Papp came to 338 ×10⁻⁶ cm/s.

The compound `COc1cccc(-c2csc(N3CCC(C(N)=O)CC3)n2)c1` registered a Papp of 638 ×10⁻⁶ cm/s.

The compound `Cn1c(=O)c2[nH]c(=O)[nH]c2n(C)c1=O` gave a Papp of 1.71 ×10⁻⁶ cm/s.

Take `COc1cccc(CNc2ccc(S(=O)(=O)Nc3cccs3)cc2)c1O`: the Papp came to 572 ×10⁻⁶ cm/s.

The compound `O=c1[nH]c(N2CCOCC2)nc2c1CCN(Cc1ccc(Cl)cc1F)CC2` yielded a Papp of over 1000 ×10⁻⁶ cm/s.

`NC(=O)NCC(=O)N[C@H]1CC[C@H](Nc2nccc(-c3ccncc3)n2)C1` came in with a Papp of under 1 ×10⁻⁶ cm/s.

For `N#Cc1ccccc1Nc1ncc(-c2cccc3ccccc23)o1`, the Papp worked out at 379 ×10⁻⁶ cm/s.

With `COc1cc(NC(=O)c2cc(-c3ccccc3O)no2)cc(OC)c1OC`, the Papp worked out at 680 ×10⁻⁶ cm/s.

As for `Cc1nnc(-c2ccccc2C(C)C)nc1NCc1ccc(-c2cccnc2)cc1`, the Papp is over 1000 ×10⁻⁶ cm/s.

Consider `CCOc1ccc(OCC)c(NC(=O)C(NS(=O)(=O)c2ccc(Br)s2)c2ccccc2)c1` (stereo not drawn), for which the Papp amounted to 1.1 ×10⁻⁶ cm/s.

The compound `Cn1cc(-c2nc(Nc3ccc(F)c(F)c3)c3ccccc3n2)cn1` gave a Papp of 315 ×10⁻⁶ cm/s.

`Cc1cnc(CNc2nc(-c3ccccc3Cl)nc3ccccc23)cn1` displayed a Papp of over 1000 ×10⁻⁶ cm/s.

`Cc1cc(F)ccc1S(=O)(=O)Nc1cnccc1C(=O)Nc1nc(-c2ccccc2)cs1` registered a Papp of over 1000 ×10⁻⁶ cm/s.

Take `CCOc1ccc(CCNC(=O)c2ccccc2)cc1OCC`: the Papp came to 580 ×10⁻⁶ cm/s.

In the case of `Brc1ccc(-c2csc(N3CCNCC3)n2)cc1`, the Papp is over 1000 ×10⁻⁶ cm/s.

For the compound `Cc1cc(CNC(=O)c2ccc3c(c2)n(CC2CC2)c(=O)n3C2CCCCC2)on1`, the Papp came to 964 ×10⁻⁶ cm/s.

Consider `CCC(=O)NC(c1ccc(OC)cc1)c1cc(Cl)c2cccnc2c1O` (stereo not drawn), for which the Papp is 687 ×10⁻⁶ cm/s.

As for `Cn1c(CN2CCCC2)nc2cc(NC(=O)COc3ccc(Cl)cc3)ccc21`, the Papp is over 1000 ×10⁻⁶ cm/s.

On to `NC(=O)C(=O)N/N=C/c1ccc([N+](=O)[O-])o1`, for which the Papp amounted to 7.99 ×10⁻⁶ cm/s.

In turn, `CC(=O)c1ccc(N2CCN(S(=O)(=O)c3ccc4c(c3)CC(=O)N4)CC2)cc1` came in with a Papp of 429 ×10⁻⁶ cm/s.

In turn, `CCCc1cc(C)[nH]c(=O)c1CNC(=O)c1cc(-c2ccnc(N3CCN(C)CC3)c2)cc2c1cnn2C(C)C` displayed a Papp of 782 ×10⁻⁶ cm/s.

Take `O=C(NCc1ccc(N2CCCC2)nc1)c1cc(Cl)ccc1O`: the Papp is over 1000 ×10⁻⁶ cm/s.

`Cc1cccc(N2CCN(C(=O)Cn3ncc4c3-c3ccccc3OC4)CC2)c1C` came in with a Papp of 676 ×10⁻⁶ cm/s.

For `Cc1ccnc(NC(=S)N2CCN(c3ccc(C(F)(F)F)cc3)CC2)c1`, the Papp stood at 587 ×10⁻⁶ cm/s.

Compound `CCOc1cc(=O)n2c(c1C(=O)Nc1cc(OC)c(Cl)cc1OC)CCCC2` yielded a Papp of 96.6 ×10⁻⁶ cm/s.

`Cc1cnc(-c2ccccc2OC(C)C)nc1NCc1ccc(-n2ccnn2)cc1` showed a Papp of over 1000 ×10⁻⁶ cm/s.

Consider `NC1(c2ccccc2Cl)CCCCC1=O` (stereo not drawn), for which the Papp was determined as 62 ×10⁻⁶ cm/s.

`CCCN1C(CC(C)C)=NS(=O)(=O)c2cc(NC(=O)c3ccco3)ccc21` had a Papp of 427 ×10⁻⁶ cm/s.

On to `CCc1ccc(-n2nc(C)c3c2NC(=O)CSC3c2ccccc2C)cc1` (stereo not drawn), for which the Papp stood at 707 ×10⁻⁶ cm/s.

Compound `CCOc1ccc(N2CC(c3nc(-c4ccccn4)no3)CC2=O)cc1` (stereo not drawn) yielded a Papp of 297 ×10⁻⁶ cm/s.

Consider `CCCc1nnc(NC(=O)c2nc(S(=O)(=O)Cc3ccc(C)cc3)ncc2Cl)s1`, for which the Papp came out at 89.4 ×10⁻⁶ cm/s.

Compound `Cc1ccc(-c2cc(C(=O)NCc3ccc(S(N)(=O)=O)cc3)c3ccccc3n2)cc1C` displayed a Papp of 71 ×10⁻⁶ cm/s.

Compound `Cc1ccc(N2CCC(CNc3nc(-c4ccccc4C(C)C)ncc3F)CC2)cn1` yielded a Papp of over 1000 ×10⁻⁶ cm/s.

On to `Cn1ncnc1[C@H]1c2n[nH]c(=O)c3cc(F)cc(c23)N[C@@H]1c1ccc(F)cc1`, for which the Papp worked out at 60.5 ×10⁻⁶ cm/s.

The compound `O=C(Nc1ccc([S+](=O)([O-])Nc2nccs2)cc1)c1ncn[nH]1` showed a Papp of under 1 ×10⁻⁶ cm/s.

The compound `Cc1noc(/C=C/c2ccccc2F)c1S(=O)(=O)N1CCC(C(=O)Nc2ccc(C#N)cc2)CC1` yielded a Papp of 8.58 ×10⁻⁶ cm/s.

For the compound `NC(=O)C1CCN(c2ncc(-c3cccc(F)c3)s2)CC1`, the apparent permeability coefficient (Papp) worked out at 896 ×10⁻⁶ cm/s.

On to `CC(C)C(=O)N1CCc2ccc(OCc3nc(C(=O)N4CCCC4)co3)cc2C1c1cccc(F)c1` (stereo not drawn), for which the Papp amounted to 188 ×10⁻⁶ cm/s.

The compound `NC(=O)C1CCN(c2nc(-c3ccc(C(F)(F)F)cc3)cs2)CC1` showed a Papp of 292 ×10⁻⁶ cm/s.

In turn, `O=C(Nc1ncnc2sc3c(c12)CCC3)c1ccco1` yielded a Papp of 369 ×10⁻⁶ cm/s.

`O=C(O)CCNc1cc(N2CCc3ccccc3CC2)nc(-c2ccccn2)n1` came in with a Papp of under 1 ×10⁻⁶ cm/s.

`CC(C)COc1ccc(-c2ccc(=O)n(CC(=O)NCCc3ccccc3)n2)cc1` came in with a Papp of over 1000 ×10⁻⁶ cm/s.

For `Cc1ccc(S(=O)(=O)Nc2cnccc2C(=O)Nc2nc(-c3ccncc3)cs2)cc1`, the Papp was found to be 74.4 ×10⁻⁶ cm/s.

Consider `COc1c(O)ccc2c1CN1CCc3cc4c(cc3[C@@H]1C2)OCO4`, for which the Papp is over 1000 ×10⁻⁶ cm/s.

The compound `c1ccc(-c2ccc(CNc3nc(-c4ccccn4)nnc3-c3ccccc3)cc2)cc1` showed a Papp of over 1000 ×10⁻⁶ cm/s.

In turn, `CCOc1ccc(CCNC(=O)c2cc3cnccc3n2Cc2cccc(C)c2)cc1OCC` returned a Papp of 184 ×10⁻⁶ cm/s.

Compound `Cn1nnnc1Sc1ncnc2scc(-c3cc4ccccc4o3)c12` had a Papp of 936 ×10⁻⁶ cm/s.

In turn, `Cc1cccc(-n2ncc3c2CCCC3NC(=O)c2c(F)ccc(F)c2F)c1C` (stereo not drawn) displayed a Papp of 916 ×10⁻⁶ cm/s.

`CC(C)=CCNc1ncnc2nc[nH]c12` had a Papp of 54.1 ×10⁻⁶ cm/s.

Regarding `O=C(O)c1c(Sc2ccccc2)c2cc(Cl)ccc2n1Cc1ccc(Cl)cc1`, the Papp came to 709 ×10⁻⁶ cm/s.

With `Fc1cc(Nc2nc(-c3ccncc3)nc3ccccc23)ccc1-c1cccnc1`, the Papp came out at 5.4 ×10⁻⁶ cm/s.

`O=C1Nc2ccc(Cl)cc2/C1=C\c1cc(Cl)c(O)c(Cl)c1`: the Papp is 69.5 ×10⁻⁶ cm/s.

In turn, `O=C(CNC(=O)c1cnccn1)NC1CCCc2c1[nH]c1ccc(Cl)cc21` (stereo not drawn) returned a Papp of over 1000 ×10⁻⁶ cm/s.

`C=C1[C@@H](C)C2[C@H](Cc3ccccc3)NC(=O)[C@@]23C(/C=C/C[C@H](C)C[C@@](C)(O)/C=C/[C@@H]3OC(C)=O)[C@@H]1O` (stereo partly drawn) registered a Papp of 50 ×10⁻⁶ cm/s.

In turn, `N#Cc1ccc(N2N=C3c4ccc(C(=O)O)cc4CC[C@@H]3[C@@H]2C2CCCC2)cc1Cl` returned a Papp of 272 ×10⁻⁶ cm/s.

In turn, `Clc1ccc2ncc(-c3cccc(NC4CNC4)n3)n2c1` showed a Papp of 182 ×10⁻⁶ cm/s.

Compound `COc1ccc(NC(=O)c2[nH]c(C)c(C(C)=O)c2C)cc1S(=O)(=O)N1CCCCC1` came in with a Papp of 757 ×10⁻⁶ cm/s.

The compound `O=C(COC(=O)CCC(=O)c1cccs1)NCc1ccco1` returned a Papp of 121 ×10⁻⁶ cm/s.

As to `COc1ccccc1OCCNCC(O)COc1cccc2[nH]c3ccccc3c12` (stereo not drawn), the Papp is over 1000 ×10⁻⁶ cm/s.

In the case of `CC(C)Oc1ccc(CNC(=O)C2CCN(C(=O)N3CCOc4ccc(Cl)cc43)CC2)cc1`, the Papp stood at 451 ×10⁻⁶ cm/s.

As for `COc1ccc(-n2nc(C3CCCN(CC4CCCCC4)C3)[nH]c2=O)cc1` (stereo not drawn), the Papp was over 1000 ×10⁻⁶ cm/s.

Take `COc1ccc(-n2nc(C3CCN(C(=O)C4CC4)CC3)[nH]c2=O)cc1`: the Papp amounted to 148 ×10⁻⁶ cm/s.

Consider `Fc1cnc(-c2ccccc2C(F)F)nc1NCc1ccc(-c2cccnc2)cc1`, for which the Papp is over 1000 ×10⁻⁶ cm/s.

On to `CC(C)c1ccc(CC(=O)N2CCCc3ncc(C(=O)Nc4cccnc4)cc32)cc1`, for which the Papp was determined as 734 ×10⁻⁶ cm/s.

Take `CCc1ccccc1Nc1ncnc2c1cnn2-c1ccc(Cl)cc1`: the Papp stood at 253 ×10⁻⁶ cm/s.

`Cn1c(=O)c2c(-c3ccc(Cl)cc3)n(CCc3ccccc3)cc2n(C)c1=O` registered a Papp of over 1000 ×10⁻⁶ cm/s.

These data come from PubChem BioAssay AID1508612.
